Assays:
[1] = TDI-11155 blood concentration during osmotic minipump delivery; format: in vivo, mouse
Description: (§1) At defined time points (15 min to 24 hours post-injection), 10 μl tail blood was progressively collected from the same males, mixed with 20 μl 15 mM EDTA, frozen in liquid nitrogen, and stored at −80 °C until analysis. Liver, kidney, eye, testis, caput and cauda epididymis, and seminal vesicle were collected, weighed, and homogenized in a threefold volume of 1:1 EtOH/H2O (v/v). […] Mice anesthetized with ketamine/xylazine were shaved and residual hair was removed with hair removal cream. A small incision was made with a scalpel, a hemostat was used to create a pump-size pocket under the skin, and the pump was inserted with the pump opening facing away from the incision. After the wound was closed, mice were treated with meloxicam for pain relief. For 7 or 42 days post-surgery, tail blood was collected at regular intervals.

[2] = system: testis, epididymis, kidneys, eyes, liver, spleen, pancreas; conditions: mouse, in vivo
Description: as §1
Blinded histopathological evaluation of indicated organs (testis, epididymis, kidneys, eyes, liver, spleen, and pancreas) was performed by a board-certified comparative pathologist at the WCM Laboratory of Comparative Pathology. […] Organs were fixed in 10% neutral buffered formalin followed by embedding into paraffin. Sections were cut followed by staining with hematoxylin and eosin (H&E) for microscopic evaluation.

[3] = biological target: T1, sAC-overexpressing rat 4-4 cells (Rattus norvegicus, UniProt Q9Z286); set-up: method as in PMID 36246105; conditions: read-out: IC50 in cellular assays; cited from earlier work
T1 construct: expressed in transfected cells
T1 sequence (Q9Z286 1-469 limits assumed): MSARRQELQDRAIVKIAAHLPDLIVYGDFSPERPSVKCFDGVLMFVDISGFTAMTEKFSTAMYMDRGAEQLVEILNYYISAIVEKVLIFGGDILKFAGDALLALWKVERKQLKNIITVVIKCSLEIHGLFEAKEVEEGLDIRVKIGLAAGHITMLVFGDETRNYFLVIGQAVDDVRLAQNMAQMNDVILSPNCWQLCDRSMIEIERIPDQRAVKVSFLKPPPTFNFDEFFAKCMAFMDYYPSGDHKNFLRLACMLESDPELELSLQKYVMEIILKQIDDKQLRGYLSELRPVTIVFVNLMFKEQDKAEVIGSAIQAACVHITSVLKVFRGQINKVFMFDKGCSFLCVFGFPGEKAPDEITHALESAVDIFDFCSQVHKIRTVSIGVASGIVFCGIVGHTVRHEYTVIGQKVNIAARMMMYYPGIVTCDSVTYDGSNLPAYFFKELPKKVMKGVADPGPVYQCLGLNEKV

Cn1cc(Cc2ccccc2OCCN2CCOCC2)c(-c2cc(Cl)nc(N)n2)n1 [TDI-11155]
delivered level relative to cellular IC50 ([1]; 7 days): 15 fold
delivered level relative to cellular IC50 ([1]; 42 days): threefold
Epididymis: Epithelial karyomegaly [2]: 2, MF
Epididymis: Exfoliated germ cells [2]: 1, MF
Eyes [2]: N
Kidneys: Lymphoplasmacytic and histiocytic infiltrates, pelvic [2]: 1, MF
Kidneys: Tubular basophilia, cortical [2]: 1, F
Kidneys: Tubular mineralization, papillary [2]: 1, F
Liver: Extramedullary hematopoiesis, random [2]: 1, MF
Liver: Lymphoplasmacytic, histiocytic, and neutrophilic hepatitis, midzonal [2]: 1, F
Liver: Lymphoplasmacytic, histiocytic, and neutrophilic hepatitis, periportal [2]: 2, F
Pancreas [2]: N
Spleen [2]: N
behavioral effects during treatment [2]: no observed behavioral effects
gross abnormalities in major organs at study termination [2]: no gross abnormalities
salt precipitation in kidneys [2]: no signs of salt precipitation
IC50 [3]: 16 nM

— article PMC9929232, “On-demand male contraception via acute inhibition of soluble adenylyl cyclase” (Nature Communications, 2023)
